This is an account of results in ChEMBL document CHEMBL1125766, “Synthesis and antiviral activity of certain guanosine analogues in the thiazolo[4,5-d]pyrimidine ring system” (1991).

Format in all cases: functional
Assay [1] deals with Mus musculus. Description: Compound was tested for mean survival time through 21 days after administration of 200 mg/kg, 24 and 18 hr prior to virus inoculation ( forest virus) in mice.
Assay [2] relates to Mus musculus. The assay is described as follows: Compound was tested for its activity against forest virus infection in mice, activity was determined by measuring the number of survived mice after 200 mg/kg administration.
The subject of assay [3] is Mus musculus. Description: Compound was tested for its activity against forest virus infection in mice, activity was determined by measuring the number of survived mice after 100 mg/kg administration.
Assay [4] relates to Mus musculus. Description: Compound was tested for mean survival time through 21 days after administration of 100 mg/kg, 24 and 18 hr prior to virus inoculation ( forest virus) in mice.
The subject of assay [5] is Mus musculus. The assay is described as follows: Compound was tested for mean survival time through 21 days after intraperitoneal administration of 150 mg/kg, 24 hr prior to virus inoculation ( forest virus) in mice.
Assay [6] relates to Mus musculus. Description: Compound was tested for mean survival time through 21 days after intravenous administration of 150 mg/kg, 24 hr prior to virus inoculation ( forest virus) in mice.
Assay [7] concerns Mus musculus. The assay is described as follows: Compound was tested for mean survival time through 21 days after oral administration of 150 mg/kg, 24 hr prior to virus inoculation ( forest virus) in mice.
Assay [8] relates to Mus musculus. Description: Compound was tested for mean survival time through 21 days after subcutaneous administration of 150 mg/kg, 24 hr prior to virus inoculation ( forest virus) in mice.
The subject of assay [9] is Mus musculus. The assay is described as follows: Compound was tested for its activity against forest virus infection in mice, activity was determined by measuring the number of survived mice after 150 mg/kg oral administration.
Assay [10] has as its system Mus musculus. The assay is described as follows: Compound was tested for its activity against forest virus infection in mice, activity was determined by measuring the number of survived mice after 150 mg/kg subcutaneous administration.
Assay [11] relates to Mus musculus. Description: Compound was tested for its activity against intraperitoneal administration.
Assay [12] concerns Mus musculus. Description: Compound was tested for its activity against forest virus infection in mice, activity was determined by measuring the number of survived mice after 150 mg/kg intravenous administration.
In assay [13] the test system is Mus musculus. Description: Compound was tested for mean survival time through 21 days after administration of 25 mg/kg, 24 and 18 hr prior to virus inoculation ( forest virus) in mice.
Assay [14] has as its system Mus musculus. The assay is described as follows: Compound was tested for its activity against forest virus infection in mice, activity was determined by measuring the number of survived mice after 25 mg/kg administration.
Assay [15] relates to Mus musculus. The assay is described as follows: Compound was tested for its activity against forest virus infection in mice, activity was determined by measuring the number of survived mice after 50 mg/kg administration.
In assay [16] the test system is Mus musculus. Description: Compound was tested for its activity against forest virus infection in mice, activity was determined by measuring the number of survived mice after 100 mg/kg administration.

Several values for one entry are separate records, joined by “and”; a condition that tells them apart may be missing. Equal values may be shown once.

Turning to `Nc1nc(O)c2sc(=O)n(C3O[C@H](COS(N)(=O)=O)[C@@H](O)[C@H]3O)c2n1` (stereo not given in full), the Mean survival time was 8.2 days in the assay with Mus musculus [1] and 8 days in the assay on Mus musculus [4]. Moreover, the Survivors is reported as 8% in the assay on Mus musculus [2] and 17% in the assay with Mus musculus [3].

With `CC(=O)OC[C@H]1O[C@@H](n2c(=O)sc3c(O)nc(N)nc32)[C@H](OC(C)=O)[C@@H]1OC(C)=O`, the Mean survival time is 8 days in the assay with Mus musculus [5], 7.9 days in the assay with Mus musculus [6], 6.6 days in the assay on Mus musculus [7] and 7 days with Mus musculus [8]. Moreover, the Survivors stood at 17% with Mus musculus [9], 82% in the assay with Mus musculus [10], 92% with Mus musculus [11] and 42% in the assay with Mus musculus [12].

`Nc1nc(=O)c2sc(=O)n([C@@H]3O[C@H](CO)[C@@H](O)[C@H]3O)c2[nH]1` [ISATORIBINE]: the Mean survival time with Mus musculus [1] was above 21 days; in the assay with Mus musculus [13], 8.8 days and 7.2 days; in the assay on Mus musculus [5], 7 days; with Mus musculus [6] it was 8 days; in the assay with Mus musculus [7], 7.1 days; with Mus musculus [8], above 21 days. Further, in the assay with Mus musculus [4] (100 mg/kg), the Mean survival time was 6.5 days and 10 days. The Survivors in the assay with Mus musculus [9] is given as 25%; in the assay with Mus musculus [10] it was 100%; in the assay with Mus musculus [2], 100%; in the assay with Mus musculus [14] it was 25%; in the assay with Mus musculus [15] it was 25%; in the assay with Mus musculus [16] it was 50%. Besides, the Survivors with Mus musculus [3] is reported as 92%; in the assay on Mus musculus [11], 91%; in the assay on Mus musculus [12], 73%.

Consider `C[C@H]1OC(n2c(=O)sc3c(O)nc(N)nc32)[C@H](O)[C@@H]1O` (stereo not given in full), for which the Mean survival time in the assay with Mus musculus [1] was found to be 8.4 days; in the assay on Mus musculus [4], 8 days. In addition, the Survivors in the assay on Mus musculus [2] is on record as 0%; with Mus musculus [3] it was 8%.

In the case of `Nc1nc(O)c2sc(=O)n([C@H]3C[C@H](O)[C@@H](CO)O3)c2n1`, the results for the Mean survival time with Mus musculus [1] and with Mus musculus [4] were 7 days and 6.8 days, respectively. Moreover, the Survivors in the assay with Mus musculus [2] is 83%; in the assay with Mus musculus [3] it was 50%.

For `Nc1nc(O)c2sc(=O)n(C(CO)OC(CO)CO)c2n1` (stereo not given), the values for the Mean survival time in the assay on Mus musculus [1] and in the assay on Mus musculus [4] were 7.8 days and 7 days, respectively. Besides, the Survivors is 0% with Mus musculus [2] and 8% with Mus musculus [3].

As for `Nc1nc(O)c2sc(=O)n([C@@H]3O[C@@H]4COP(=O)(O)O[C@H]4[C@H]3O)c2n1`, the Mean survival time in the assay on Mus musculus [13] was 7.1 days and 7.3 days; with Mus musculus [4] it was 7 days. Further, the Survivors in the assay with Mus musculus [14] amounted to 42%; with Mus musculus [15], 17%; with Mus musculus [16] it was 50%.

Consider `Nc1nc(O)c2sc(=O)n(C3O[C@H](COP(=O)(O)O)[C@@H](O)[C@H]3O)c2n1` (stereo not given in full), for which the Mean survival time was 8.1 days and 7.1 days in the assay with Mus musculus [13]; 6.5 days with Mus musculus [4]. Moreover, the Survivors with Mus musculus [14] is reported as 25%; with Mus musculus [15] it was 50%; in the assay with Mus musculus [16] it was 67%.
